# Tested on: Moraxella osloensis
# Test: Examination example: suppression of metabolism of 14-methylhexadecanoic acid, components (a) and (b)/(b′)
# Format: cell-based
# Details: single agent 100 μg/fabric g
# Description: The suppression of metabolism of 14-methylhexadecanoic acid by bacteria of the genus Moraxella and the suppression of a metabolite therefrom were tested in the following manner.
# Moraxella osloensis (strain isolated from clothing) was precultured on an SCD-LP agar medium (NIHON PHARMACEUTICAL CO., LTD.) at 37° C.; for 24 hours, and a bacterial suspension of 10^6 (CFU/ml) was prepared by using an NB liquid medium (Difco) diluted to 1/20 with ion exchange water.
# A methanol solution in which 14-methylhexadecanoic acid (SIGMA-ALDRICH) was dissolved was added dropwise to 3 cm×3 cm pieces of sterilized plain-weave cotton fabric to make it adhered to the fabric. The adhesion amount of 14-methylhexadecanoic acid was set to 10 μg per piece of the plain-weave cotton fabric (100 μg/fabric g). Further, a methanol solution in which component (a) was dissolved, and then, a methanol solution in which component (b) or (b′) was dissolved were added dropwise to the fabric to which 14-methylhexadecanoic acid adhered, and it was thereafter dried for an hour. This fabric was placed in a sterilized screw tube bottle No. 3 (Maruemu Corporation) and 100 μl of the bacterial suspension was inoculated thereto, and culture was carried out under 37° C.; conditions for 21 hours.
# 3 ml of methanol was added to the screw tube bottle after culture, and extraction was carried out under ultrasonic irradiation for 30 minutes (20° C.). The extraction liquid was mixed with a (trimethylsilyl)diazomethane hexane solution (FUJIFILM Wako Pure Chemical Corporation) at 9:1 (volume ratio) and left overnight under room temperature and dark place conditions. After that, 14-methylhexadecanoic acid remaining on the fabric was quantified by GC. The quantification conditions for GC are as follows. • GC: Agilent 6890N • GC column: Agilent DB-1 30 m×250 μm×0.25 μm • Temperature rise condition: 50° C. (held for 3 minutes)-(10° C./min)-300° C. (held for 5 minutes) • Sample injection volume: 1 μl • Split ratio: 1:12 • Detector: FID
# The residual amount of 14-methylhexadecanoic acid after culture on the fabric to which each metabolism controlling agent was added was quantified, and the ratio of the residual amount to that of 14-methylhexadecanoic acid in the case of adding no metabolism controlling agent (control) was calculated as a metabolism suppression rate (%). The higher a numerical value thereof is, the more the metabolism is suppressed. Note that the metabolism suppression rate was determined by the following formula:
# Metabolism suppression rate(%)=[1−(100−A)/(100−B)]×100 • A: residual amount of 14-methylhexadecanoic acid of reference or examination example (μg/fabric g) • B: residual amount of 14-methylhexadecanoic acid of control (μg/fabric g)
# A control is an example in which none of component (a), (b) or (b′) is added, and references 1-1, 2-1, 3-1 and 4-1 qualify as this (the same applies hereinafter). In these controls, the metabolism suppression rate is 0′.
compound,measurement,setting,value
"CCCCCCCCCCCCO [Example C12OH, 1-dodecanol]",Metabolism of branched fatty acid: Residual amount (μg/fabric g),14-methylhexadecanoic acid,59 μg/fabric g
same,Metabolism of branched fatty acid: Metabolism suppression rate (%),,33%
